≈ marks a conversion by molar mass, not a printed value.
Key:
Format in all cases: functional
Pseudomonas aeruginosa = experiment: Antibacterial activity against Pseudomonas aeruginosa ATCC 23564 assessed as growth inhibition after 24 hr by two-fold serial dilution method; settings: ATCC 23564, 24 h
Salmonella typhi = experiment: Antibacterial activity against Salmonella enterica subsp. enterica serovar Typhi ATCC 15499 assessed as growth inhibition after 24 hr by two-fold serial dilution method; settings: ATCC 15499, 24 h
Escherichia coli = experiment: Antibacterial activity against Escherichia coli ATCC 35218 assessed as growth inhibition after 24 hr by two-fold serial dilution method; settings: ATCC 35218, 24 h
Staphylococcus aureus = experiment: Antibacterial activity against Staphylococcus aureus ATCC 11632 assessed as growth inhibition after 24 hr by two-fold serial dilution method; settings: ATCC 11632, 24 h
Enterococcus faecalis = experiment: Antibacterial activity against Enterococcus feacalis clinical isolate assessed as growth inhibition after 24 hr by two-fold serial dilution method
Bacillus cereus = experiment: Antibacterial activity against Bacillus cereus MTCC 7350 assessed as growth inhibition after 24 hr by two-fold serial dilution method; settings: MTCC 7350, 24 h

SMILES | MIC (Pseudomonas aeruginosa) [µg/mL] | MIC (Salmonella typhi) [µg/mL] | MIC (Escherichia coli) [µg/mL] | MIC (Staphylococcus aureus) [µg/mL] | MIC (Enterococcus faecalis) [µg/mL] | MIC (Bacillus cereus) [µg/mL]
Cc1ccc(-c2nc3ccccc3[nH]2)cc1 | 12.5 (≈ 60 µM) | 50 (≈ 240 µM) | 50 (≈ 240 µM) | 25 (≈ 120 µM) | 50 (≈ 240 µM) | 200 (≈ 960 µM)
Oc1ccccc1-c1nc2ccccc2[nH]1 | 25 (≈ 119 µM) | 400 (≈ 1900 µM) | 400 (≈ 1900 µM) | 25 (≈ 119 µM) | 50 (≈ 238 µM) | 6.25 (≈ 29.7 µM)
CC1(C)S[C@@H]2[C@H](NC(=O)[C@H](N)c3ccccc3)C(=O)N2[C@H]1C(=O)O [AMPICILLIN] | 50 (≈ 143 µM) | 6.25 (≈ 17.9 µM) | 400 (≈ 1140 µM) | 50 (≈ 143 µM) | 400 (≈ 1140 µM) | 50 (≈ 143 µM)
Oc1ccc(-c2nc3ccccc3[nH]2)cc1 | 25 (≈ 119 µM) | 400 (≈ 1900 µM) | 400 (≈ 1900 µM) | 25 (≈ 119 µM) | 100 (≈ 476 µM) | 50 (≈ 238 µM)
O=[N+]([O-])c1ccc(-c2nc3ccccc3[nH]2)cc1 | 12.5 (≈ 52.3 µM) | 25 (≈ 105 µM) | 50 (≈ 209 µM) | 50 (≈ 209 µM) | 25 (≈ 105 µM) | 25 (≈ 105 µM)
COc1ccc(-c2nc3ccccc3[nH]2)cc1 | 25 (≈ 111 µM) | 25 (≈ 111 µM) | 50 (≈ 223 µM) | 12.5 (≈ 55.7 µM) | 25 (≈ 111 µM) | 50 (≈ 223 µM)
C(=C\c1ccc(-c2nc3ccccc3[nH]2)cc1)/c1ccccc1 | 12.5 (≈ 42.2 µM) | 25 (≈ 84.4 µM) | 50 (≈ 169 µM) | 12.5 (≈ 42.2 µM) | 25 (≈ 84.4 µM) | 6.25 (≈ 21.1 µM)
Clc1ccc(-c2nc3ccccc3[nH]2)cc1 | 12.5 (≈ 54.7 µM) | 25 (≈ 109 µM) | 25 (≈ 109 µM) | 12.5 (≈ 54.7 µM) | 12.5 (≈ 54.7 µM) | 6.25 (≈ 27.3 µM)
O=C(O)c1cn(C2CC2)c2cc(N3CCNCC3)c(F)cc2c1=O [CIPROFLOXACIN] | 1.25 (≈ 3.77 µM) | 3.12 (≈ 9.42 µM) |  |  |  | 
c1ccc(-c2nc3ccccc3[nH]2)cc1 | 12.5 (≈ 64.4 µM) | 6.25 (≈ 32.2 µM) | 50 (≈ 257 µM) | 12.5 (≈ 64.4 µM) | 12.5 (≈ 64.4 µM) | 50 (≈ 257 µM)
